One test concerns the target ALK1 (aa166-493) (Homo sapiens (Human), UniProt P37023). Put plainly: Caliper biochemical peptide phosphorylation assay, ALK1. The conditions noted are these: 15 uM ATP.
The target of another test is ALK3 (aa198-525) (Homo sapiens (Human), UniProt P36894). In words: ADPGlo biochemical autophosphorylation assay, ALK3. The settings on record: 15 uM ATP. (In ADP-Glo the light output rises with the ADP produced.)
Test [1] relates to HuH7 cells, BMP response element (BRE) luciferase reporter, BMP6 stimulated. Put plainly: BMP signaling reporter gene assay. The class given is cell-based. The conditions noted are these: Homo sapiens, Huh-7; BMP6 100 ng/ml; read-out: MSD HuH7 cell BMP reporter IC50. (In a reporter assay the amount or activity of a reporter protein is the signal.)
Description: A human liver hepatocellular carcinoma cell line (HuH7) stably transfected with a reporter plasmid consisting of the human BMP response element (BRE) from the Id1 promoter fused to a luciferase reporter gene was generated through lentiviral transduction.
Assays were performed in 384-well flat bottom polystyrene microtiter plates (cell culture treated) with sterile lids. The cells were starved through medium exchange in Blasticidine- and FCS-free medium 16 h before the assay. Prior to the assay, cells were detached from the stock flask using trypsin/EDTA and counted. A cell suspension in the same medium without Blasticidin and FCS was prepared. 2×10^4 cells in a total volume of 40 ul were added to each well of a plate already containing serial dilutions of each compound in DMSO (final DMSO concentration 0.5%). […] Assay plates are incubated for another 5 hours at 37° C., 5% CO2 before luciferase levels are measured.
The amount of expressed luciferase is quantified using the Steady-Glo® Luciferase Assay System (Promega #E2520).
Another test concerns the target ALK5 (aa162-503) (Homo sapiens (Human), UniProt P36897). Put plainly: Caliper biochemical peptide phosphorylation assay, ALK5. The conditions noted are these: 15 uM ATP. An excerpt: For all biochemical assays, human recombinant proteins were expressed in and purified from baculo virus transfected insect cells. The constructs comprised the GS-domain and kinase domain of wild-type ALK2 (aa172-499), ALK2 FOP mutant (aa172-499 R206H), ALK3 (aa198-525), ALK5 (aa162-503) and ALK6 (aa168-495).
A kinase selectivity panel which measures substrate peptide phosphorylation was set-up for wild-type ALK2 (aa172-499), ALK2 FOP mutant (aa172-499 R206H), ALK1 (aa166-493), ALK5 (aa162-503) and ALK6 (aa168-495). The technology used for the described assay is based on the separation and quantification of substrate and product in an electrical field. In the course of the kinase reaction the peptide substrate is phosphorylated by a kinase. […] Due to this difference in charge the phosphorylated und unphosphorylated peptides migrate with different velocities in an electrical field.
In the applied method, this separation takes place inside a chip that contains a complex capillary system for simultaneous analysis of 12 samples (“LabChip EZ Reader 12-sipper chip”, Caliper Technologies Corp., Mountain View, USA). In order to allow the detection and quantification of the peptides in the capillary system, the peptides carry a fluorescent label (fluorescein). With this label the peptides can be quantified by fluorescence intensity through the instruments laser and detection system (LC3000, Caliper Life Sciences).
The assays were performed in 384-well, low volume microtiter assay plates in a final reaction volume of 9 ul. Dose-response curves were generated by incubating 10 nM of each kinase together with 2 uM of the fluorescently labeled substrate peptide 5-Fluo-Ahx-[…]-T-[…]-amid (10 mM stock solution in DMSO) in 50 mM Hepes pH 7.5, 0.02% Tween 20, 0.02% BSA, 1 mM DTT, 10 uM Na3VO4, 10 mM ß-Glycerolphosphate, 1 mM MgCl2, 12 mM MnCl2 (ALK1 and ALK6 7 mM) and 15 uM ATP for 60 min at 30° C. in the presence or absence of compound diluted in DMSO.
Kinase reactions were terminated by adding 15 ul STOP buffer (100 mM HEPES pH 7.5, 5% DMSO, 0.1% Caliper coating reagent, 10 mM EDTA, and 0.015% Brij35.
Plates with terminated kinase reactions were transferred to the Caliper LC3000 workstation (Caliper Technologies Corp., Mountain View, USA) for reading. The relative amount of phosphorylated peptide r, was calculated using the heights of the substrate peak, s, and the product peak, p:r=p/(p+s).
IC50 values for a given antagonist correspond to the compound concentration needed to inhibit half of the maximum signal of the kinase reaction.

The target of test [2] is ALK2 FOP mutant (aa172-499 R206H) (Homo sapiens (Human), UniProt Q04771, R206H). Put plainly: Caliper biochemical peptide phosphorylation assay, ALK2 FOP. The conditions noted are these: Caliper peptide phosphorylation, R206H, 15 uM ATP; read-out: ALK2 FOP EPK IC50.
In test [3] the target is T1, wild-type ALK2 (aa172-499) (Homo sapiens (Human), UniProt Q04771). Put plainly: ADPGlo biochemical autophosphorylation assay, ALK2. The settings on record: 15 uM ATP.
The target of test [4] is T1, wild-type ALK2 (aa172-499). Put plainly: Caliper biochemical peptide phosphorylation assay, ALK2. The conditions noted are these: Caliper peptide phosphorylation, 15 uM ATP; read-out: ALK2 IC50.
Another test has as its target ALK6 (aa168-495) (Homo sapiens (Human), UniProt O00238). Put plainly: Caliper biochemical peptide phosphorylation assay, ALK6. The settings on record: 15 uM ATP.

This note sets out measurements from patent US11160797B2, “Pyridinone derivatives and their use as selective ALK-2 inhibitors” (NOVARTIS AG, priority 2017, dated 2021).

Molecules are shown by their SMILES.

A word on the IC50: it is the concentration needed to halve the response being measured.

Sequence of ALK6 (aa168-495) (O00238 168-495): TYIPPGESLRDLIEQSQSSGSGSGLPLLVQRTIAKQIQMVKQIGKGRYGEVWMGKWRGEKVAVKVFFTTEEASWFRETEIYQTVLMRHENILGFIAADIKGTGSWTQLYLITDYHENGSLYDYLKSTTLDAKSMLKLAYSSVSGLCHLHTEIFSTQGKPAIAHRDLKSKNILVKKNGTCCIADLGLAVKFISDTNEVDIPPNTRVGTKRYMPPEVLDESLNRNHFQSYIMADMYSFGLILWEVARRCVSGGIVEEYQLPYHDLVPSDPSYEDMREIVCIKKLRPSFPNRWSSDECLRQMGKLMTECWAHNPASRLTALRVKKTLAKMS
Sequence of ALK5 (aa162-503) (P36897 162-503): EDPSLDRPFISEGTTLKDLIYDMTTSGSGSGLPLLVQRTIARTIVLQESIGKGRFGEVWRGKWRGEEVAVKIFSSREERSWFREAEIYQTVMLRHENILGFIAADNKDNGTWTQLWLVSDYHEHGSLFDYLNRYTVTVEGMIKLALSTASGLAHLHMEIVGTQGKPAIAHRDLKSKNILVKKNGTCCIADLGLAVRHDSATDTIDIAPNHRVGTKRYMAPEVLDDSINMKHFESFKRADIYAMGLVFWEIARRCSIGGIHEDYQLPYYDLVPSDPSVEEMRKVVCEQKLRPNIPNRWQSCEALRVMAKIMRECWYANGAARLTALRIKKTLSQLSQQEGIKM
Sequence of ALK2 FOP mutant (aa172-499 R206H) (Q04771 172-499 R206H): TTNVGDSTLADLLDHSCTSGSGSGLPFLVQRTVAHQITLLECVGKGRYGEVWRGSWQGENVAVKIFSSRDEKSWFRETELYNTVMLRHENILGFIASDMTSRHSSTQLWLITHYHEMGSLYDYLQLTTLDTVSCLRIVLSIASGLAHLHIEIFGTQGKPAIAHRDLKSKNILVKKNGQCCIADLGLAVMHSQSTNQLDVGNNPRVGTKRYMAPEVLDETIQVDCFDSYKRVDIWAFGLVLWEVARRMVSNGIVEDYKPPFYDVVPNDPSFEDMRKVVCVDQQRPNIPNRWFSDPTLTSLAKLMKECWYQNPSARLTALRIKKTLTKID
Sequence of ALK1 (aa166-493) (P37023 166-493): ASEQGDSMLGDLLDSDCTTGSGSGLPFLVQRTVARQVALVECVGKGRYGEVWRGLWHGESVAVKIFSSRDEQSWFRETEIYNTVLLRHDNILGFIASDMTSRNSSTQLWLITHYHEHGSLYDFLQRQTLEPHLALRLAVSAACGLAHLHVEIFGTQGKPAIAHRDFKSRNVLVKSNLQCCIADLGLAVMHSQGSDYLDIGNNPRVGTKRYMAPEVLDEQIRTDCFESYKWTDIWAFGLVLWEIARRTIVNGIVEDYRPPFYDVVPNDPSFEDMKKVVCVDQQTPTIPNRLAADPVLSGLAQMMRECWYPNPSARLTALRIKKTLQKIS
T1 sequence (Q04771 172-499): as the sequence (Q04771 172-499 R206H) above, with H35R counted along it
Sequence of ALK3 (aa198-525) (P36894 198-525): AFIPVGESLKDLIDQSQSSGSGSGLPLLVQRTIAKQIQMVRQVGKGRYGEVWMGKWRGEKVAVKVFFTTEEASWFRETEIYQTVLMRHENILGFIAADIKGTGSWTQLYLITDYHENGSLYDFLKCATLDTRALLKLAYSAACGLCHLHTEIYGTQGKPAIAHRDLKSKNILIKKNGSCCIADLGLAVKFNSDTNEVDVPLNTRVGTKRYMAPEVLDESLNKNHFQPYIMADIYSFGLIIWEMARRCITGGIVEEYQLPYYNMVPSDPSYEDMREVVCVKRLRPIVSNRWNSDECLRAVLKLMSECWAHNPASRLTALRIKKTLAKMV

For `CN1C(=O)Cc2cc(-c3cncc(-c4ccc(=O)n(CC5CCC5)c4)c3)ccc21` [Example 11, 5-(1′-(cyclobutylmethyl)-6′-oxo-1′,6′-dihydro-[3,3′-bipyridin]-5-yl)-1-methylindolin-2-one], the IC50 is 4700 nM at ALK1 (aa166-493); 7900 nM on ALK3 (aa198-525); 640 nM in test [1]; above 10000 nM against ALK5 (aa162-503); 470 nM in test [2]; 600 nM in test [3]. Besides, the IC50 in test [4] is 490 nM; at ALK6 (aa168-495), above 10000 nM.
On to `CN1C(=O)Cc2cc(-c3cncc(-c4ccc(=O)n(CC(F)(F)F)c4)c3)ccc21` [Example 12, 1-methyl-5-(6′-oxo-1′-(2,2,2-trifluoroethyl)-1′,6′-dihydro-[3,3′-bipyridin]-5-yl)indolin-2-one], for which the IC50 was 6800 nM against ALK1 (aa166-493); above 15100 nM on ALK3 (aa198-525); 800 nM in test [1]; above 10000 nM on ALK5 (aa162-503); 810 nM in test [2]; 1500 nM in test [3]. In addition, the figures for the half-inhibitory concentration (IC50) (in test [4]; on ALK6 (aa168-495)) were 800 nM and 7000 nM, respectively.
Turning to `CCC(CC)Cn1cc(-c2cncc(-c3ccc4c(c3)CC(=O)N4C)c2)ccc1=O` [Example 13, 5-(1′-(2-ethylbutyl)-6′-oxo-1′,6′-dihydro-[3,3′-bipyridin]-5-yl)-1-methylindolin-2-one], the IC50 against ALK1 (aa166-493) is 5300 nM; at ALK3 (aa198-525), 8500 nM; in test [1], 790 nM; against ALK5 (aa162-503) it was above 10000 nM; in test [2], 570 nM; in test [3], 680 nM. Besides, the half-maximal inhibitory concentration (IC50) is 620 nM in test [4] and above 10000 nM on ALK6 (aa168-495).
Turning to `COCn1cc(-c2cncc(-c3ccc4c(c3)CC(=O)N4C)c2)ccc1=O` [Example 15, 5-(1′-(methoxymethyl)-6′-oxo-1′,6′-dihydro-[3,3′-bipyridin]-5-yl)-1-methylindolin-2-one], the IC50 at ALK1 (aa166-493) is 5100 nM; against ALK3 (aa198-525) it was 9900 nM; in test [1], 1500 nM; on ALK5 (aa162-503) it was above 10000 nM; in test [2] it was 740 nM; in test [3], 880 nM. Moreover, the IC50 in test [4] was 760 nM; at ALK6 (aa168-495), above 10000 nM.
Consider `CN1C(=O)Cc2cc(-c3cncc(-c4ccc(=O)n(CCC(F)(F)F)c4)c3)ccc21` [Example 16, 1-methyl-5-(6′-oxo-1′-(3,3,3-trifluoropropyl)-1′,6′-dihydro-[3,3′-bipyridin]-5-yl)indolin-2-one], for which the IC50 against ALK1 (aa166-493) is 8700 nM; at ALK3 (aa198-525), 15000 nM; in test [1], 1200 nM; against ALK5 (aa162-503) it was above 10000 nM; in test [2], 830 nM; in test [3] it was 1100 nM. Besides, the concentration for half-maximal inhibition (IC50) in test [4] was 820 nM; against ALK6 (aa168-495) it was above 10000 nM.
Consider `CC(C)CCn1cc(-c2cncc(-c3ccc4c(c3)CC(=O)N4C)c2)ccc1=O` [Example 17, 5-(1′-isopentyl-6′-oxo-1′,6′-dihydro-[3,3′-bipyridin]-5-yl)-1-methylindolin-2-one], for which the IC50 against ALK1 (aa166-493) was 7000 nM; on ALK3 (aa198-525), above 15100 nM; in test [1], 1200 nM; at ALK5 (aa162-503) it was above 10000 nM; in test [2], 910 nM; in test [3] it was 1100 nM. The values for the IC50 (in test [4]; on ALK6 (aa168-495)) were 920 nM and above 10000 nM, respectively.
Regarding `CN1C(=O)Cc2cc(-c3cncc(-c4ccc(=O)n(C5CCCCO5)c4)c3)ccc21` (centres unmarked) [Example 18, 1-methyl-5-(6′-oxo-1′-(tetrahydro-2H-pyran-2-yl)-1′,6′-dihydro-[3,3′-bipyridin]-5-yl)indolin-2-one], the IC50 against ALK1 (aa166-493) is 4700 nM; against ALK3 (aa198-525), above 15100 nM; in test [1], 420 nM; on ALK5 (aa162-503), above 10000 nM; in test [2] it was 600 nM; in test [3], 1000 nM. The IC50 in test [4] was 710 nM; against ALK6 (aa168-495) it was above 10000 nM.
In the case of `CN1C(=O)Cc2cc(-c3cncc(-c4ccc(=O)n(C)c4)c3)ccc21` [Example 19, 1-methyl-5-(1′-methyl-6′-oxo-1′,6′-dihydro-[3,3′-bipyridin]-5-yl)indolin-2-one], the IC50 on ALK1 (aa166-493) was 4200 nM; on ALK3 (aa198-525), 5400 nM; in test [1], 1900 nM; at ALK5 (aa162-503) it was above 10000 nM; in test [2], 810 nM; in test [3] it was 2200 nM. In addition, the IC50 in test [4] stood at 740 nM; at ALK6 (aa168-495), 9300 nM.
Turning to `CC(C)N1C(=O)Cc2cc(-c3cncc(-c4ccc(=O)n(C(C)C)c4)c3)ccc21` [Example 21, 1-Isopropyl-5-(1′-isopropyl-6′-oxo-1′,6′-dihydro-[3,3′-bipyridin]-5-yl)indolin-2-one], the IC50 on ALK1 (aa166-493) came to 360 nM; against ALK3 (aa198-525), 570 nM; in test [1], 60 nM; against ALK5 (aa162-503) it was 1800 nM; in test [2], 53 nM; in test [3], 64 nM. Further, the IC50 in test [4] stood at 60 nM; on ALK6 (aa168-495) it was 720 nM.
Turning to `CCC1C(=O)N(C)c2ccc(-c3cncc(-c4ccc(=O)n(C(C)C)c4)c3)cc21` (centres unmarked) [Example 22, 3-Ethyl-5-(1′-isopropyl-6′-oxo-1′,6′-dihydro-[3,3′-bipyridin]-5-yl)-1-methylindolin-2-one], the concentration for half-maximal inhibition (IC50) on ALK1 (aa166-493) was 2170 nM; at ALK3 (aa198-525) it was 4200 nM; in test [1], 540 nM; on ALK5 (aa162-503), above 10000 nM; in test [2], 340 nM; in test [3], 725 nM. For the same molecule, the IC50 in test [4] is 390 nM; on ALK6 (aa168-495), 2770 nM.
For `CC(C)n1cc(-c2cncc(-c3ccc4c(c3)C(F)(F)C(=O)N4C)c2)ccc1=O` [Example 23, 3,3-Difluoro-5-(1′-isopropyl-6′-oxo-1′,6′-dihydro-[3,3′-bipyridin]-5-yl)-1-methylindolin-2-one], the IC50 was 5600 nM on ALK1 (aa166-493); 5800 nM against ALK3 (aa198-525); 1200 nM in test [1]; above 10000 nM at ALK5 (aa162-503); 870 nM in test [2]; 1200 nM in test [3]. In addition, the values for the IC50 (in test [4]; against ALK6 (aa168-495)) were 670 nM and 4500 nM, respectively.
Consider `CC(C)CN1C(=O)Cc2cc(-c3cncc(-c4ccc(=O)n(C(C)C)c4)c3)ccc21` [Example 24, 1-Isobutyl-5-(1′-isopropyl-6′-oxo-1′,6′-dihydro-[3,3′-bipyridin]-5-yl)indolin-2-one], for which the IC50 against ALK1 (aa166-493) was determined as 420 nM; at ALK3 (aa198-525) it was 300 nM; in test [1], 60 nM; against ALK5 (aa162-503), 1900 nM; in test [2] it was 60 nM; in test [3], 67 nM. Further, the IC50 was determined as 70 nM in test [4] and 800 nM on ALK6 (aa168-495).
Consider `CCCN1C(=O)Cc2cc(-c3cncc(-c4ccc(=O)n(C(C)C)c4)c3)ccc21` [Example 25, 5-(1′-Isopropyl-6′-oxo-1′,6′-dihydro-[3,3′-bipyridin]-5-yl)-1-propylindolin-2-one], for which the IC50 against ALK1 (aa166-493) is 540 nM; against ALK3 (aa198-525) it was 490 nM; in test [1], 90 nM; against ALK5 (aa162-503), 1500 nM; in test [2], 70 nM; in test [3], 100 nM. Moreover, the values for the half-inhibitory concentration (IC50) (in test [4]; against ALK6 (aa168-495)) were 80 nM and 1000 nM, respectively.
